Reference: patent US20250195521A1 (Revolution Medicines, Inc., priority 2020, published 2025)
Read-outs that look alike come from different tables or passages of the source.

Legend:
Type in all cases: cell-based, human
[1] = system: NCI-H358 (K-Ras G12C); assay: CellTiter-Glo cell viability assay, H358
Protocol: (§1) Note—The following protocol describes a procedure for monitoring cell viability of K-Ras mutant cancer cell lines in response to a compound of the invention. Other RAS isoforms may be employed, though the number of cells to be seeded will vary based on cell line used.
(§2) Test compounds (132.5 nL) were directly dispensed into the assay plates containing cells. […] On day 5, assay plates and their contents were equilibrated to room temperature for approximately 30 minutes. […] Luminescence was measured using the PerkinElmer Enspire. Data were normalized by the following: (Sample signal/Avg. DMSO)*100. The data were fit using a four-parameter logistic fit.

[2] = system: AsPC-1 (K-Ras G12D); assay: CellTiter-Glo cell viability assay, AsPC-1; conditions: read-out: AsPC-1 Cell Viability IC50
Protocol: as §1, §2

[3] = system: AsPC-1 (K-Ras G12D); assay: Potency assay: pERK
Procedure, shortened: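 Cells plated overnight, then exposed 4 h at 37 °C to 10-point 3-fold dilutions of compound, in duplicate. pERK read by AlphaLISA SureFire Ultra p-ERK1/2 lysate assay or by In-Cell Western (pERK antibody, DRAQ5 DNA normalisation). IC50 from 4-parameter sigmoidal fit of signal vs log concentration.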

[4] = Homo sapiens, NCI-H358, 120 h, read-out: H358 Cell Viability IC50, K-Ras G12C, 5-day treatment
[5] = Homo sapiens, ASPC1, read-out: pERK EC50

Row | SMILES | IC50 [1, 4] [µM] | IC50 ([2]; Homo sapiens, ASPC1, 120 h) [µM] | EC50 [3, 5] [µM] | other results
1 | CCn1c(-c2cccnc2[C@H](C)OC)c2c3cc(ccc31)-c1cc(O)cc(c1)C[C@H](NC(=O)[C@H](C(C)C)N(C)C(=O)[C@H](C)N(C)C(=O)[C@H]1CN1)C(=O)N1CCC[C@H](N1)C(=O)OCC(C)(C)C2 [Example 102] | 0.01 to 0.1 | 0.1 to 1 | < 5 | –
2 | CCn1c(-c2cccnc2[C@H](C)OC)c2c3cc(ccc31)-c1cccc(c1)C[C@H](NC(=O)[C@H](C(C)C)N(C)C(=O)CN(C)C(=O)[C@H]1CN1)C(=O)N1CCC[C@H](N1)C(=O)OCC(C)(C)C2 [Example 107] | 0.1 to 1 | 1 to 10 | < 5 | –
3 | CCn1c(-c2cccnc2[C@H](C)OC)c2c3cc(ccc31)-c1cc(O)cc(c1)C[C@H](NC(=O)[C@H](C(C)C)N(C)C(=O)CN(C)C(=O)[C@@H]1N[C@@H]1C1CC1)C(=O)N1CCC[C@H](N1)C(=O)OCC(C)(C)C2 [Example 133, (2R,3R)-3-cyclopropyl-N-(2-(((2S)-1-(((6^3S,4S)-1^1-ethyl-25-hydroxy-1^2-(2-((S)-1-methoxyethyl)pyridin-3-yl)-10,10-dimethyl-5,7-dioxo-61,62,63,64,65,66-hexahydro-1^1H-8-oxa-1 (5,3)-indola-6 (1,3)-pyridazina-2 (1,3)-benzenacycloundecaphane-4-yl)amino)-3-methyl-1-oxobutan-2-yl) (methyl)amino)-2-oxoethyl)-N-methylaziridine-2-carboxamide] | 0.01 to 0.1 | 0.01 to 0.1 | < 5 | –
4 | CCn1c(-c2cccnc2[C@H](C)OC)c2c3cc(ccc31)-c1cc(O)cc(c1)C[C@H](NC(=O)[C@H](C(C)C)N(C)C(=O)CN(C)C(=O)[C@H]1N[C@@H]1C1CC1)C(=O)N1CCC[C@H](N1)C(=O)OCC(C)(C)C2 [Example 135] | – | 0.1 to 1 | – | IC50 ([1]; read-out: H358 Cell Viability IC50, K-Ras G12C, 5-day treatment): 0.01 to 0.1 µM; EC50 ([3]; read-out: pERK EC50, AsPC-1 KRAS G12D): < 5 µM
5 | CCn1c(-c2cccnc2[C@H](C)OC)c2c3cc(ccc31)-c1cc(O)cc(c1)C[C@H](NC(=O)[C@H](C(C)C)N(C)C(=O)CN(C)C(=O)[C@H]1N[C@@H]1C1CC1)C(=O)N1CCC[C@H](N1)C(=O)OCC(C)(C)C2 [Example 136] | < 0.01 | – | < 5 | IC50 ([2]; K-Ras G12D, 5-day treatment): 0.1 to 1 µM
6 | CCn1c(-c2cccnc2[C@H](C)OC)c2c3cc(ccc31)-c1cc(O)cc(c1)C[C@H](NC(=O)[C@H](C(C)C)N(C)C(=O)CN(C)C(=O)[C@@H]1CN1CCCOC)C(=O)N1CCC[C@H](N1)C(=O)OCC(C)(C)C2 (stereo partly drawn) [Example 137] | < 0.01 | 0.1 to 1 | < 5 | –
7 | CCn1c(-c2cccnc2[C@H](C)OC)c2c3cc(ccc31)-c1cc(O)cc(c1)C[C@H](NC(=O)[C@H](C(C)C)N(C)C(=O)CNC(=O)[C@@H]1N[C@@H]1C1CC1)C(=O)N1CCC[C@H](N1)C(=O)OCC(C)(C)C2 [Example 141] | 0.1 to 1 | 0.1 to 1 | < 5 | –
8 | CCn1c(-c2cccnc2[C@H](C)OC)c2c3cc(ccc31)-c1cc(O)cc(c1)C[C@H](NC(=O)[C@H](C(C)C)N(C)C(=O)CN(C)C(=O)[C@H]1CN1C(C)C)C(=O)N1CCC[C@H](N1)C(=O)OCC(C)(C)C2 (stereo partly drawn) [Example 142] | < 0.01 | 0.1 to 1 | < 5 | –
9 | CCC(C)N(C)C(=O)c1cncc(-c2c3c4cc(ccc4n2CC)-c2cc(O)cc(c2)C[C@H](NC(=O)[C@H](C(C)C)N(C)C(=O)CN(C)C(=O)[C@H]2CN2)C(=O)N2CCC[C@H](N2)C(=O)OCC(C)(C)C3)c1 (stereo partly drawn) [Example 144] | 0.01 to 0.1 | 0.1 to 1 | < 5 | –
10 | CCn1c(-c2cccnc2[C@H](C)OC)c2c3cc(ccc31)-c1cc(O)cc(c1)C[C@H](NC(=O)[C@H](C(C)C)N(C)C(=O)CN(C)C(=O)[C@@H]1CN1C(C)C)C(=O)N1CCC[C@H](N1)C(=O)OCC(C)(C)C2 (stereo partly drawn) [Example 148] | < 0.01 | 0.1 to 1 | < 5 | –
11 | CCn1c(-c2cccnc2[C@H](C)OC)c2c3cc(ccc31)-c1cc(O)cc(c1)C[C@H](NC(=O)[C@H](C(C)C)N(C)C(=O)CN(C)C(=O)[C@@H]1CN1)C(=O)N1CCC[C@H](N1)C(=O)OCC(C)(C)C2 [Example 150] | < 0.01 | 0.1 to 1 | < 5 | –
12 | CCn1c(-c2cccnc2[C@H](C)OC)c2c3cc(ccc31)-c1cc(O)cc(c1)C[C@H](NC(=O)[C@H](C(C)C)N(C)C(=O)CN(C)C(=O)[C@H]1CN1Cc1ccccc1F)C(=O)N1CCC[C@H](N1)C(=O)OCC(C)(C)C2 (stereo partly drawn) [Example 155] | < 0.01 | 0.1 to 1 | < 5 | –
13 | CCn1c(-c2cccnc2[C@H](C)OC)c2c3cc(ccc31)-c1cc(O)cc(c1)C[C@H](NC(=O)[C@H](C(C)C)N(C)C(=O)CN(C)C(=O)[C@H]1CN1Cc1ccccc1CO)C(=O)N1CCC[C@H](N1)C(=O)OCC(C)(C)C2 (stereo partly drawn) [Example 156] | < 0.01 | 0.1 to 1 | < 5 | –
14 | CCn1c(-c2cccnc2[C@H](C)OC)c2c3cc(ccc31)-c1cc(O)cc(c1)C[C@H](NC(=O)[C@H](C(C)C)N(C)C(=O)CN(C)C(=O)[C@H]1CN1CCOC)C(=O)N1CCC[C@H](N1)C(=O)OCC(C)(C)C2 (stereo partly drawn) [Example 159] | < 0.01 | 0.1 to 1 | < 5 | –
15 | CCn1c(-c2cccnc2[C@H](C)OC)c2c3cc(ccc31)-c1cc(O)cc(c1)C[C@H](NC(=O)[C@H](C(C)C)N(C)C(=O)CN(C)C(=O)[C@@H]1CN1CCOC)C(=O)N1CCC[C@H](N1)C(=O)OCC(C)(C)C2 (stereo partly drawn) [Example 160] | < 0.01 | 0.1 to 1 | < 5 | –
16 | CCn1c(-c2cccnc2[C@H](C)OC)c2c3cc(ccc31)-c1cc(O)cc(c1)C[C@H](NC(=O)[C@H](C(C)C)N(C)C(=O)CN(C)C(=O)[C@H]1CN1CCCOC)C(=O)N1CCC[C@H](N1)C(=O)OCC(C)(C)C2 (stereo partly drawn) [Example 201] | < 0.01 | 0.1 to 1 | < 5 | –
17 | CCn1c(-c2cc(N3CCN(C)CC3)cnc2[C@H](C)OC)c2c3cc(ccc31)-c1cc(O)cc(c1)C[C@H](NC(=O)[C@H](C1CCCC1)N(C)C(=O)CN(C)C(=O)[C@H]1CN1)C(=O)N1CCC[C@H](N1)C(=O)OCC(C)(C)C2 [Example 209, (2R)—N-(2-(((1S)-1-cyclopentyl-2-(((6^3S,4S)-1^1-ethyl-25-hydroxy-12-(2-((S)-1-methoxyethyl)-5-(4-methylpiperazin-1-yl)pyridin-3-yl)-10,10-dimethyl-5,7-dioxo-6^1,6^2,6^3,6^4,6^5,6^6-hexahydro-1^1H-8-oxa-1 (5,3)-indola-6 (1,3)-pyridazina-2 (1,3)-benzenacycloundecaphane-4-yl)amino)-2-oxoethyl) (methyl)amino)-2-oxoethyl)-N-methylaziridine-2-carboxamide] | < 0.01 | < 0.01 | < 5 | –
18 | CCn1c(-c2cccnc2[C@H](C)OC)c2c3cc(ccc31)-c1cc(O)cc(c1)C[C@H](NC(=O)[C@H](C1CCCC1)N1CC[C@]3(CCN(C(=O)[C@@H]4N[C@@H]4C4CC4)C3)C1=O)C(=O)N1CCC[C@H](N1)C(=O)OCC(C)(C)C2 [Example 214, (2S)-2-cyclopentyl-2-((S)-7-((2R,3R)-3-cyclopropylaziridine-2-carbonyl)-1-oxo-2,7-diazaspiro[4.4]nonan-2-yl)-N-((6^3S,4S)-1^1-ethyl-25-hydroxy-1^2-(2-((S)-1-methoxyethyl)pyridin-3-yl)-10,10-dimethyl-5,7-dioxo-6^1,6^2,6^3,6^4,6^5,6^6-hexahydro-1^1H-8-oxa-1 (5,3)-indola-6 (1,3)-pyridazina-2 (1,3)-benzenacycloundecaphane-4-yl) acetamide] | – | – | – | IC50 ([1]; Homo sapiens, NCI-H358, 120 h, K-Ras G12C, 5-day treatment, read-out: H358 Cell Viability IC50): 0.01 to 0.1 µM; IC50 ([2]; Homo sapiens, ASPC1, 120 h, K-Ras G12D, 5-day treatment): 0.01 to 0.1 µM; EC50 ([3]; Homo sapiens, ASPC1, AsPC-1 KRAS G12D, read-out: pERK EC50): < 5 µM
19 | CCn1c(-c2cccnc2[C@H](C)OC)c2c3cc(ccc31)-c1cc(O)cc(c1)C[C@H](NC(=O)[C@H](C(C)C)N(C)C(=O)CN(C)C(=O)[C@@]1(C)CN1)C(=O)N1CCC[C@H](N1)C(=O)OCC(C)(C)C2 [Example 256] | 0.01 to 0.1 | 0.1 to 1 | < 5 | –
20 | CCn1c(-c2cccnc2[C@H](C)OC)c2c3cc(ccc31)-c1cc(O)cc(c1)C[C@H](NC(=O)[C@H](C(C)C)N(C)C(=O)CN(C)C(=O)[C@]1(C)CN1)C(=O)N1CCC[C@H](N1)C(=O)OCC(C)(C)C2 [Example 257] | 0.01 to 0.1 | 0.1 to 1 | < 5 | –
21 | CCn1c(-c2cccnc2[C@H](C)OC)c2c3cc(ccc31)-c1cc(O)cc(c1)C[C@H](NC(=O)[C@H](C(C)C)N(C)C(=O)CN(C)C(=O)[C@@H]1N[C@@H]1C(F)(F)F)C(=O)N1CCC[C@H](N1)C(=O)OCC(C)(C)C2 [Example 258] | 0.01 to 0.1 | 0.1 to 1 | < 5 | –
22 | CCn1c(-c2cccnc2[C@H](C)OC)c2c3cc(ccc31)-c1cc(O)cc(c1)C[C@H](NC(=O)[C@H](C(C)C)N(C)C(=O)CN(C)C(=O)[C@H]1N[C@H]1C(F)(F)F)C(=O)N1CCC[C@H](N1)C(=O)OCC(C)(C)C2 [Example 259] | 0.01 to 0.1 | 0.1 to 1 | < 5 | –
23 | CCn1c(-c2cccnc2[C@H](C)OC)c2c3cc(ccc31)-c1cc(O)cc(c1)C[C@H](NC(=O)[C@H](C(C)C)N(C)C(=O)CN(C)C(=O)[C@H]1N[C@@H]1C(F)(F)F)C(=O)N1CCC[C@H](N1)C(=O)OCC(C)(C)C2 [Example 261] | < 0.01 | 0.1 to 1 | < 5 | –
